Data published in PMC7177833, “2-Aminopyridine Analogs Inhibit Both Enzymes of the Glyoxylate Shunt in Pseudomonas aeruginosa” (International Journal of Molecular Sciences, 2020).
Several values for one entry are separate records, joined by “and”; a condition that tells them apart may be missing. Equal values may be shown once. Read-outs that look alike come from different tables or passages of the source.

Tests used:
CYP450 isozymes = test: CYP450 inhibition in HLM, whole isozyme panel; type: in vitro ADME, human; conditions: over the concentration range tested
Experimental: (§1) The CYP450 inhibition was determined by measuring the reaction products of known CYP450 substrates (probes). Probe solutions were prepared by diluting stock solutions with buffer (100 mM Tris-HCl, pH 7.5, and 0.5 mM EDTA) to the final indicated concentrations (Figure 5), and adding 180 µL of pooled human liver microsomes (20 mg/mL) (BioIVT, West Sussex, UK). These probe solutions were dispensed (195 µL) into clear 96-well plates with low evaporation lids (Corning, Turin, Italy) and the plates were prewarmed to 37 °C in a thermomixer (Hamilton, Agrate Brianza, Italy). Next, 5 µL of the test compound or appropriate positive control (Table S4) were added to the wells and the plates were incubated for a further 5 min. Following this, the reactions were started by adding NADPH regenerating solution (50 µL, see previous Section 4.7) to each well. CYP450 mixtures containing phenacetin, rosiglitazone, mephenytoin, atorvastatin, and nifedipine probes were incubated for 10 min at 37 °C, whereas those with midazolam and diclofenac were incubated for 5 min at 37 °C. Aliquots (100 µL) from each reaction mixture were quenched in 200 µL acetonitrile, and the mixtures were sedimented at 3000 ×g for 10 min at 4 °C. The supernatants were diluted in water containing 5 ng/mL Rolipram as an internal standard for LC-MS/MS analysis. All incubations were carried out in triplicate.
(§2) Probe products were analyzed on an API4000 Qtrap mass spectrometer (Applied Biosystems/MDS SCIEX, Monza, Italy) coupled with an Acquity UPLC system (Waters, Milan, Italy) and a CTC-PAL auto-injector (CTC Analytics AG, Zwingen, Switzerland). […] The column temperature was maintained at 60 °C. The injected sample volume was 10 µL, and analytes were eluted at a flow rate of 800 µL/min in a gradient of eluent A (water with 0.1% formic acid) and eluent B (acetonitrile with 0.1% formic acid). […] The analytes were quantified in multiple reaction-monitoring mode. Data were processed, and the percentage control activity was calculated based on a comparison between the ratio of the sample peak area and the peak area.

CYP2C8 = molecular target: T1, CYP2C8 (Homo sapiens, UniProt P10632); test: CYP450 inhibition in HLM, rosiglitazone probe; type: in vitro ADME; conditions: read-out: IC50 CYP450 2C8
T1 construct: pooled human liver microsomes; tissue BioIVT; host or cells: pooled human liver microsomes
T1 sequence (P10632 1-490): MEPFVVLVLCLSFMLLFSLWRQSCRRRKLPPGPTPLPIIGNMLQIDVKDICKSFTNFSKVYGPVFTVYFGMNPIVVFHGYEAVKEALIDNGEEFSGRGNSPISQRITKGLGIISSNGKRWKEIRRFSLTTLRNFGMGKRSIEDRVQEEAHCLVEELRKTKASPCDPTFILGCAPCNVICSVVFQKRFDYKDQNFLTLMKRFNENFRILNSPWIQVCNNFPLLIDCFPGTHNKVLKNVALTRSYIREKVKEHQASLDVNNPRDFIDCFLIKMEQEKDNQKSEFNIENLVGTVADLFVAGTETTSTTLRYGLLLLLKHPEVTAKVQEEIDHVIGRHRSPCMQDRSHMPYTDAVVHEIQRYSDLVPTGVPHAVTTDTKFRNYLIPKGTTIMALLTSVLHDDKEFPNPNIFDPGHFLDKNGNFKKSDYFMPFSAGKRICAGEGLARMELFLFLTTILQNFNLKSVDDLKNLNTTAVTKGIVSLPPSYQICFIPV
Experimental: as §1, §2

CYP3A4 = molecular target: T2, CYP3A4 (Homo sapiens, UniProt P08684); test: CYP450 inhibition in HLM, atorvastatin, nifedipine and midazolam probes; type: in vitro ADME
T2 construct: pooled human liver microsomes; tissue BioIVT; host or cells: pooled human liver microsomes
Experimental: All incubations were carried out in triplicate.
The column temperature was maintained at 60 °C. […] The column temperature was maintained at 45 °C. […] The analytes were quantified in multiple reaction-monitoring mode.

CYP1A2 = molecular target: T3, CYP1A2 (Homo sapiens, UniProt P05177); test: CYP450 inhibition in HLM, phenacetin probe
T3 sequence (P05177 1-516): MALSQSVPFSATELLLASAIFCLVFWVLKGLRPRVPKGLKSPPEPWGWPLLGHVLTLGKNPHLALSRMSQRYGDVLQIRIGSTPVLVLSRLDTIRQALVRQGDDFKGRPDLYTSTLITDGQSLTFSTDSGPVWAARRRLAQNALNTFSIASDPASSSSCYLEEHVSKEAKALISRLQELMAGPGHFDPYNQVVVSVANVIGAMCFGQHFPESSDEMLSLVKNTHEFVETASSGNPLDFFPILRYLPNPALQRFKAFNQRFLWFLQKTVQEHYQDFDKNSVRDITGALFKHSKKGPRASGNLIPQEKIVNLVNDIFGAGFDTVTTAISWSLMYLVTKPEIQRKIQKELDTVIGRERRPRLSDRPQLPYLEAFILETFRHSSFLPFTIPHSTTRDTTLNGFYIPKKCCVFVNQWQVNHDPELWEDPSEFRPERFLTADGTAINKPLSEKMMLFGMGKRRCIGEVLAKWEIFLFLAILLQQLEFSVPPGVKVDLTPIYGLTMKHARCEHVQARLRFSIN
Experimental: as §1, §2

[1] = CellTiter-Glo luminescent cell viability assay (ATP), H27; type: cell-based, human; conditions: human; H27 cells, 48 h, ATP luminescence; read-out: Cytotoxicity IC50 H27
Experimental: (§3) The number of viable cells based on ATP quantification was determined using the CellTiter-Glo® luminescent cell viability assay (Promega, Madison, WI, USA, lot no. 0000200446). Briefly, cells were seeded into white, flat-bottomed, sterile 96-well plates (PerkinElmer, Beaconsfield, UK) and incubated for 24 h. For A-375 cells, we used 10,000 cells/well, and for H27 cells, we used 7500 cells/well. Test compounds were diluted in assay medium (Glutamax DMEM with 5% FBS (Gibco)) and added to the plates in two-fold dilutions starting at 100 µM. Negative controls (0.5% DMSO) and positive controls (camptothecin, 1.6 µM for the A-375 cells and 50 µM for the H27 cells) were also included, and the plates were incubated for an additional 48 h (95% humidity, 5% CO2 at 37 °C). After incubation, the cells were washed with PBS. To each well, we then added 50 µL of assay medium plus 50 µL of CellTiter-Glo® reagent. The samples were then shaken for 2 min at 100 rpm at 25 °C, followed by a further 10 min at 25 °C to stabilize the luminescence signal. Luminescence was measured using a VarioSkan LUX multimode microplate reader (Thermo Fisher Scientific, Vantaa, Finland).

H27 cells = test: as above; type: cell-based, human; conditions: IC50 cytotoxicity/IC50 P. aeruginosa growth inhibition in M9 acetate
Experimental: as §3

[2] = midazolam probe, read-out: IC50 CYP450 3A4- MDZ
[3] = atorvastatin probe, read-out: IC50 CYP450 3A4-ATR
[4] = nifedipine probe, read-out: IC50 CYP450 3A4-NIF

T2 sequence (P08684 whole entry): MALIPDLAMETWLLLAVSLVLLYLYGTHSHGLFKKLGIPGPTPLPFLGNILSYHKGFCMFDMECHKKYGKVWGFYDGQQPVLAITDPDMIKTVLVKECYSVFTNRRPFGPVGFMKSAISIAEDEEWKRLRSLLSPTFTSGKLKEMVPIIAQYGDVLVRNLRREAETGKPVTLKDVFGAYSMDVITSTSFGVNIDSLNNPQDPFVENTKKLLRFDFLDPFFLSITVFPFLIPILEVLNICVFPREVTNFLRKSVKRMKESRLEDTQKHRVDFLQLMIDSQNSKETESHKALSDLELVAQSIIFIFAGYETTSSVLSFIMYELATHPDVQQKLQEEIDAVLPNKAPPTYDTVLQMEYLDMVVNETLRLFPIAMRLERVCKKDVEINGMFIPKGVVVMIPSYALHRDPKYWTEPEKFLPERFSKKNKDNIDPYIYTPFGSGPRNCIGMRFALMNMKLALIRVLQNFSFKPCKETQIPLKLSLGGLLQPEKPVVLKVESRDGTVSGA

Structure (SMILES)	inhibitory drug–drug interactions (CYP450 inhibition) (CYP450 isozymes)	IC50 (CYP2C8) [µM]	IC50 (CYP3A4; [2]) [µM]	IC50 (CYP1A2) [µM]	IC50 (CYP3A4; [3]) [µM]	IC50 (CYP3A4; [4]) [µM]	IC50 at 48 h [1] [µM]	Therapeutic index H27 (H27 cells)
Nc1cc(Cl)ccn1 [Compound 2-AP, 2-amino-4-chloropyridine, reference compound]	no major inhibitory drug–drug interactions	> 100	> 100	> 100	–	–	–	–
CC(C)(C)OC(=O)/N=C(\NC(=O)OC(C)(C)C)Nc1cc(Cl)ccn1 [SB002]	no major inhibitory drug–drug interactions	> 100	> 100	> 100	> 100	> 100	98.4	93 and 93.73
CC(C)(C)OC(=O)/N=C(\NC(=O)OC(C)(C)C)Nc1cc(C#N)ccn1 [SB023]	no major inhibitory drug–drug interactions	> 100	> 100	> 100	> 100	> 100	205	23.27
